Experimental data from ChEMBL document CHEMBL4483862, “Open-source discovery of chemical leads for next-generation chemoprotective antimalarials” (2018).

System: Plasmodium berghei
Assay: Luciferase/luciferin-expressing antifolate-resistant parasites were used to infect a culture of HepG2 cells that were pre-incubated with compounds. Infected hepatocytes emit light due to the luciferase reaction. Assay results are presented as the percent inhibition of light emission compared to control. […]
Assay type: functional
Details: sporozoite; for IC90: read-out: LUCIFERASE INFECTION ASSAY - IC90
[1] = read-out: LUCIFERASE INFECTION ASSAY - IC50

Compound	IC90 [µM]	IC50 [1] [µM]	further results
CC(=O)c1cccc(-c2cnc3ccc(-c4cccc(Oc5ccccc5)c4)nn23)c1	> 10	–	IC50 (HEPG2TOX_HILL_SLOPE 0.164, HEPG2TOX_R_SQUARED 0.772, PBLUC_HILL_SLOPE 1.12, PBLUC_R_SQUARED 0.566, read-out: LUCIFERASE INFECTION ASSAY - IC50): 1.9 µM
COc1ccc(S(=O)(=O)Nc2ccccc2C(=O)NNC(=O)c2ccccc2O)cc1	4.69	–	IC50 (HEPG2TOX_HILL_SLOPE 4.15, HEPG2TOX_R_SQUARED 0.834, PBLUC_HILL_SLOPE 17, PBLUC_R_SQUARED 0.564, read-out: LUCIFERASE INFECTION ASSAY - IC50): 4.12 µM
COc1cncc(-c2cncc(Nc3cccc(Cl)c3)c2)c1	9.85	–	IC50 (PBLUC_HILL_SLOPE 20.7, PBLUC_R_SQUARED 0.436, read-out: LUCIFERASE INFECTION ASSAY - IC50): 8.86 µM
O=C1C=C/C(=N/N(Cc2ccccc2)c2ccccc2)O1	> 10	> 10	–
O=C(c1cccs1)c1c(-c2ccccc2)cc2ccccn12	3.73	–	IC50 (HEPG2TOX_HILL_SLOPE 2.42, HEPG2TOX_R_SQUARED 0.887, PBLUC_HILL_SLOPE 12.4, 11.2, PBLUC_R_SQUARED 0.720, 0.734, read-out: LUCIFERASE INFECTION ASSAY - IC50): 3.1 µM
C=C(C)[C@@H]1CC=C(CN2CCC3(CC2)C(=O)N(Cc2cccnc2)C(=O)N3CCc2ccccc2)CC1	> 6.62	–	IC50 (HEPG2TOX_HILL_SLOPE 8.2, HEPG2TOX_R_SQUARED 0.91, PBLUC_HILL_SLOPE 3.93, PBLUC_R_SQUARED 0.652, read-out: LUCIFERASE INFECTION ASSAY - IC50): 3.82 µM
O=C(NCCO)c1cccc(-c2ccc3ncc(-c4cccc(Cl)c4)n3n2)c1	3.56	–	IC50 (HEPG2TOX_HILL_SLOPE 1.24, HEPG2TOX_R_SQUARED 0.781, PBLUC_HILL_SLOPE 15.2, PBLUC_R_SQUARED 0.219, read-out: LUCIFERASE INFECTION ASSAY - IC50): 3.08 µM
Cn1ccc2cc(-c3cnc4cnc(-c5ccc6c(c5)OCO6)cn34)ccc21	0.0413	–	IC50 (HEPG2TOX_HILL_SLOPE 1.26, HEPG2TOX_R_SQUARED 0.912, PBLUC_HILL_SLOPE 10.9, PBLUC_R_SQUARED 0.837, read-out: LUCIFERASE INFECTION ASSAY - IC50): 0.0338 µM
Cc1cc(Cl)n2ncc(-c3ccc(F)cc3)c2n1	12.3	–	IC50 (HEPG2TOX_HILL_SLOPE 0.63, HEPG2TOX_R_SQUARED 0.416, PBLUC_HILL_SLOPE 2.81, PBLUC_R_SQUARED 0.71, read-out: LUCIFERASE INFECTION ASSAY - IC50): 5.62 µM
COc1cc(-c2cc3c(cn2)nc(NCc2cccc(C)c2)n3C)ccc1O	> 10	> 10	–
OC[C@H]1O[C@@H](c2nc(-c3nc(-c4ccc5c(c4)OCO5)no3)cs2)C[C@@H]1O	2.15	–	IC50 (PBLUC_HILL_SLOPE 1.28, PBLUC_R_SQUARED 0.808, read-out: LUCIFERASE INFECTION ASSAY - IC50): 0.386 µM
Cc1cc(NC(=O)C(Nc2ccc(N3CCCC3)c(C)c2)c2ccccc2)no1 (configuration not stated)	> 10	–	IC50 (FFLUC_HILL_SLOPE 3.98, FFLUC_R_SQUARED 0.653, PBLUC_HILL_SLOPE 2, PBLUC_R_SQUARED 0.333, read-out: LUCIFERASE INFECTION ASSAY - IC50): > 10 µM
COC(=O)c1c(NC(=O)c2cccnc2)c2cc(NCc3ccco3)cnc2n1Cc1ccccc1	> 6.85	–	IC50 (HEPG2TOX_HILL_SLOPE 11.5, HEPG2TOX_R_SQUARED 0.854, PBLUC_HILL_SLOPE 4.03, PBLUC_R_SQUARED 0.534, read-out: LUCIFERASE INFECTION ASSAY - IC50): 4.51 µM
Cn1cc(C(=O)ONC(=N)c2ccc(C(C)(C)C)cc2)c(C(F)(F)F)n1	> 8.96	> 8.96	–
CN(CCO)C(=O)NCCC(c1ccccc1)c1ccccc1	> 10	> 10	–
O=C(Nc1cccc(C(F)(F)F)c1)c1ccc(-c2ccccc2F)cc1	> 9.18	> 9.18	–
CCCCn1c(N)c(N(CCC)C(=O)/C=C/c2cccc3cccnc23)c(=O)[nH]c1=O	3.69	–	IC50 (PBLUC_HILL_SLOPE 14.7, PBLUC_R_SQUARED 0.526, read-out: LUCIFERASE INFECTION ASSAY - IC50): 3.18 µM
Cc1cc([N+](=O)[O-])cc(S(=O)(=O)N(Cc2ccc(C(=O)NC3CC3)cc2)C2CC2)c1C	2.18	–	IC50 (PBLUC_HILL_SLOPE 2.2, PBLUC_R_SQUARED 0.808, read-out: LUCIFERASE INFECTION ASSAY - IC50): 0.801 µM
Cc1c(S(=O)(=O)c2ccc(Cl)cc2)csc1C(=O)N1CC(C)OC(C)C1 (configuration not stated)	> 7.97	> 7.97	–
COc1ccc(OC)c(CCNc2nc3cnc(-c4ccc(Cl)cc4)cc3n2C)c1	3.74	–	IC50 (HEPG2TOX_HILL_SLOPE 1.93, HEPG2TOX_R_SQUARED 0.878, PBLUC_HILL_SLOPE 2.27, PBLUC_R_SQUARED 0.668, read-out: LUCIFERASE INFECTION ASSAY - IC50): 1.42 µM
CN(C)CCCNc1nc(-c2cccs2)nc2sc3c(c12)CCCC3	4.04	–	IC50 (PBLUC_HILL_SLOPE 12.2, PBLUC_R_SQUARED 0.29, read-out: LUCIFERASE INFECTION ASSAY - IC50): 3.37 µM
CC1CCc2sc(C(=O)OCC(=O)NCCN3C(=O)CSC3=S)cc2C1 (configuration not stated)	> 10	> 10	–
O=C1Nc2ccccc2SC1c1c(-c2ccc(Cl)cc2)cc2ccccn12 (configuration not stated)	> 10	> 10	–

Compound	IC90 [µM]	IC50 [1] [µM]	further results
CCn1c(=S)[nH]c2cc(C(=O)N3CCN(C(c4ccc(F)cc4)c4ccc(F)cc4)CC3)ccc21	> 10	> 10	–
CCn1c2ccccc2c2cc(NC(=O)CN3CCN(Cc4ccc5c(c4)OCO5)CC3)ccc21	> 10	–	IC50 (PBLUC_HILL_SLOPE 2.07, PBLUC_R_SQUARED 0.0912, read-out: LUCIFERASE INFECTION ASSAY - IC50): 8.08 µM
CC(C)Cn1c(=O)n(C)c(=O)c2c(SCC#N)nc(CC(C)(C)C)nc21	> 10	> 10	–
CSc1ccc(/C=C2\SC(=O)N(CCNC(=O)c3nc4nccc(C)n4n3)C2=O)cc1	> 10	> 10	–
COC(=O)c1scc(S(=O)(=O)Cc2ccco2)c1NN=C(C#N)C#N	> 8.72	> 8.72	–
O=C(NCc1ccc(Cl)cc1Cl)/C(=C/c1cccs1)n1nnnc1-c1ccccc1	> 10	–	IC50 (PBLUC_HILL_SLOPE 1.46, PBLUC_R_SQUARED 0.613, read-out: LUCIFERASE INFECTION ASSAY - IC50): 4.83 µM
NS(=O)(=O)c1ccc(Nc2nc(-c3ccc(Cl)s3)cs2)cc1	> 10	–	IC50 (FFLUC_HILL_SLOPE 0.347, FFLUC_R_SQUARED 0.604, read-out: LUCIFERASE INFECTION ASSAY - IC50): > 10 µM
CCOc1ccc(NC(=O)c2ccc(NC(=O)CSc3nncs3)cc2)cc1	> 10	> 10	–
c1ccc(C[n+]2ccc(-c3ncc(-c4ccc5ccccc5c4)o3)cc2)cc1	4.15	–	IC50 (HEPG2TOX_HILL_SLOPE 3.46, HEPG2TOX_R_SQUARED 0.77, PBLUC_HILL_SLOPE 12.4, 9.50, PBLUC_R_SQUARED 0.642, 0.816, read-out: LUCIFERASE INFECTION ASSAY - IC50): 3.38 µM
Cc1nsc(N)c1C(=O)OCc1cc(=O)n2c3c(sc2n1)CCCC3	> 10	–	IC50 (FFLUC_HILL_SLOPE 11.9, FFLUC_R_SQUARED 0.297, read-out: LUCIFERASE INFECTION ASSAY - IC50): > 10 µM
NC(=O)c1ccc(N2CCNCC2)nc1	> 10	> 10	–
COc1cc(OC)c(N2CC(C(=O)NC(C)c3ccc(F)c(F)c3)CC2=O)cc1Cl (configuration not stated)	> 10	> 10	–
Cc1c(S(=O)(=O)c2ccc(Cl)cc2)csc1C(=O)NCc1ccco1	> 8.34	–	IC50 (PBLUC_HILL_SLOPE 1.58, PBLUC_R_SQUARED 0.729, read-out: LUCIFERASE INFECTION ASSAY - IC50): 2.88 µM
OCc1ccccc1-c1cn2c(-c3ccc(Cl)cc3)cnc2cn1	3.81	–	IC50 (PBLUC_HILL_SLOPE 13.7, PBLUC_R_SQUARED 0.696, read-out: LUCIFERASE INFECTION ASSAY - IC50): 3.25 µM
COc1cc(/C=N/Nc2c(Cl)c(Cl)nc(C(=O)O)c2Cl)cc(OC)c1OC	> 10	–	IC50 (HEPG2TOX_HILL_SLOPE 0.214, HEPG2TOX_R_SQUARED 0.0951, read-out: LUCIFERASE INFECTION ASSAY - IC50): > 10 µM
NC1=CC(=O)c2ccccc2C1=O	> 19.1	–	IC50 (PBLUC_HILL_SLOPE 2.49, PBLUC_R_SQUARED 0.187, read-out: LUCIFERASE INFECTION ASSAY - IC50): 12 µM
CCCCc1[nH]nc2ccnc(-c3cncc(OC)c3)c12	> 10	–	IC50 (HEPG2TOX_HILL_SLOPE 1.78, HEPG2TOX_R_SQUARED 0.895, read-out: LUCIFERASE INFECTION ASSAY - IC50): > 10 µM
CC(C)(C)c1cc(N2Cc3ccccc3C2=N)cc(C(C)(C)C)c1	> 10	> 10	–
CCOC(=O)c1c(-c2ccc(C)o2)csc1NC(=O)CN(C)CC(=O)Nc1ccc(Cl)c(C(F)(F)F)c1	> 10	> 10	–
O=C(Nc1nonc1-c1cccs1)c1sc2ccccc2c1Cl	3.36	–	IC50 (HEPG2TOX_HILL_SLOPE 3.76, HEPG2TOX_R_SQUARED 0.735, PBLUC_HILL_SLOPE 21.7, PBLUC_R_SQUARED 0.795, read-out: LUCIFERASE INFECTION ASSAY - IC50): 3.04 µM
CCOC(=O)c1sc(SCc2ccc(Cl)cc2)c2c1CCCC2=O	> 8.66	–	IC50 (FFLUC_HILL_SLOPE 175, FFLUC_R_SQUARED 0.438, PBLUC_HILL_SLOPE 6.18, PBLUC_R_SQUARED 0.111, read-out: LUCIFERASE INFECTION ASSAY - IC50): > 8.66 µM
O=C(NCc1ccc(S(=O)(=O)N2CCOCC2)s1)c1ccc(Cl)cc1	> 8.23	> 8.23	–
O=C(Nc1cccc(C(F)(F)F)c1)Nc1ccc2nc(-c3ccncc3)nn2c1	> 10	> 10	–
